These molecules were tested on HEK293T cells carrying the ATF4 luciferase reporter (assay: ATF4-Luc assay (in vitro model of VWMD)). Conditions: Homo sapiens, HEK-293T, 1 μg/mL tunicamycin, 7 hours, One Glo luminescence.
Assay type: cell-based, human
Procedure: In order to test exemplary compounds of the invention in a cellular context, a stable VWMD cell line was first constructed. The ATF4 reporter was prepared by fusing the human full-length ATF4 5′-UTR (NCBI Accession No. BC022088.2) in front of the firefly luciferase (FLuc) coding sequence lacking the initiator methionine as described in Sidrauski et al (eLife 2013). The construct was used to produce recombinant retroviruses using standard methods and the resulting viral supernatant was used to transduce HEK293T cells, which were then subsequently selected with puromycin to generate a stable cell line.
HEK293T cells carrying the ATF4 luciferase reporter were plated on polylysine coated 384-well plates (Greiner Bio-one) at 30,000 cells per well. Cells were treated the next day with 1 μg/mL tunicamycin and 200 nM of a compound of Formula (I) for 7 hours. Luminescence was measured using One Glo (Promega) as specified by the manufacturer. Cells were maintained in DMEM with L-glutamine supplemented with 10% heat-inactivated FBS (Gibco) and Antibiotic-Antimycotic solution (Gibco).
Table 4 below summarizes the EC50 data obtained using the ATF4-Luc assay for exemplary compounds of the invention.

Q: With `O=C(N[C@@H]1C[C@@H]2O[C@H]1C[C@H]2c1nnc([C@H]2C[C@@H](OC(F)(F)F)C2)o1)[C@H]1C[C@@H](O)c2cc(Cl)ccc2O1` (mixture of isomers) [Compound 187] as the molecule, how does the EC50 read?
A: 50 to 250 nM

Q: For `O=C(N[C@H]1C[C@@H](OC(F)(F)F)C1)[C@H]1C[C@H]2O[C@@H]1C[C@@H]2NC(=O)[C@H]1C[C@@H](O)c2cc(Cl)ccc2O1` (mixture of isomers) [Compound 219, (2R,4R)-6-chloro-4-hydroxy-N-[(1RS,2SR,4RS,5SR)-5-{[cis-3-(trifluoromethoxy)cyclobutyl]carbamoyl}-7-oxabicyclo[2.2.1]heptan-2-yl]-3,4-dihydro-2H-1-benzopyran-2-carboxamide], which EC50 is on record?
A: 500 to 2000 nM

Q: For `O=C1C[C@H](C(=O)NC23CC(NC(=O)[C@@H]4C[C@@H]4COC(F)(F)F)(C2)C3)Oc2ccc(Cl)cc21` (mixture of isomers) [Compound 296, (2R)-6-chloro-4-oxo-N-[3-({(1RS,2SR)-2-[(trifluoromethoxy)methyl]cyclopropane-1-carbonyl}amino)bicyclo[1.1.1]pentan-1-yl]-3,4-dihydro-2H-1-benzopyran-2-carboxamide], which EC50 is on record?
A: 500 to 2000 nM

Q: `O=C(NC12CC(NC(=O)[C@@H]3C[C@@H]3COC(F)(F)F)(C1)C2)[C@H]1C[C@@H](O)c2cc(Cl)ccc2O1` (mixture of isomers) [Compound 299, (2R,4R)-6-chloro-4-hydroxy-N-[3-({(1RS,2SR)-2-[(trifluoromethoxy)methyl]cyclopropane-1-carbonyl}amino)bicyclo[1.1.1]pentan-1-yl]-3,4-dihydro-2H-1-benzopyran-2-carboxamide] was tested. Which EC50 did it give?
A: 500 to 2000 nM

Q: Which EC50 does the source give for `O=C(NCc1ccc(C(F)(F)F)cn1)[C@H]1C[C@H]2O[C@@H]1C[C@@H]2NC(=O)[C@H]1C[C@@H](O)c2cc(Cl)ccc2O1` (mixture of isomers) [Compound 313, (2R,4R)-6-chloro-4-hydroxy-N-[(1RS,2SR,4RS,5SR)-5-({[5-(trifluoromethyl)pyridin-2-yl]methyl}carbamoyl)-7-oxabicyclo[2.2.1]heptan-2-yl]-3,4-dihydro-2H-1-benzopyran-2-carboxamide] here?
A: 250 to 500 nM

Q: For `O=C(COc1ccc(Cl)c(F)c1)NC12CC(C(=O)NC[C@H]3C[C@@H](O)c4cc(Cl)ccc4O3)(C1)C2` (racemic) [Compound 104, 3-[2-(4-chloro-3-fluorophenoxy)acetamido]-N-{[rac-(2R,4R)-6-chloro-4-hydroxy-3,4-dihydro-2H-1-benzopyran-2-yl]methyl}bicyclo[1.1.1]pentane-1-carboxamide], which EC50 is on record?
A: 10 to 50 nM

Q: Which EC50 does the source give for `O=C(CO[C@H]1C[C@@H](OC(F)(F)F)C1)NC12CC(NC(=O)[C@H]3C[C@@H](O)c4cc(Cl)ccc4O3)(C1)C2` (racemic) [Compound 114, rac-(2R,4R)-6-chloro-4-hydroxy-N-[3-(2-{[(1s,3s)-3-(trifluoromethoxy)cyclobutyl]oxy}acetamido)bicyclo[1.1.1]pentan-1-yl]-3,4-dihydro-2H-1-benzopyran-2-carboxamide] here?
A: < 10 nM

Q: With `O=C(NCc1ccc(C(F)(F)F)cc1)[C@@H]1CC[C@@H](NC(=O)[C@H]2C[C@@H](O)c3cc(Cl)ccc3O2)CO1` (racemic) [Compound 121, (2R,4R)-6-chloro-4-hydroxy-N-[(3R,6S)-6-({[4-(trifluoromethyl)phenyl]methyl}carbamoyl)oxan-3-yl]-3,4-dihydro-2H-1-benzopyran-2-carboxamide and (2S,4S)-6-chloro-4-hydroxy-N-[(3R,6S)-6-({[4-(trifluoromethyl)phenyl]methyl}carbamoyl)oxan-3-yl]-3,4-dihydro-2H-1-benzopyran-2-carboxamide] as the molecule, how does the EC50 read?
A: 10 to 50 nM

Q: How did the EC50 turn out when `O=C(N[C@@H]1CC[C@@H](C(=O)N2CC(Oc3ccc(Cl)cc3)C2)OC1)[C@H]1C[C@@H](O)c2cc(Cl)ccc2O1` (racemic) [Compound 122, (2R,4R)-6-chloro-N-(3R,6S)-6-[3-(4-chlorophenoxy)azetidine-1-carbonyl]oxan-3-yl)-4-hydroxy-3,4-dihydro-2H-1-benzopyran-2-carboxamide and (2S,4S)-6-chloro-N-{(3R,6S)-6-[3-(4-chlorophenoxy)azetidine-1-carbonyl]oxan-3-yl}-4-hydroxy-3,4-dihydro-2H-1-benzopyran-2-carboxamide] was run?
A: 10 to 50 nM

Q: Which EC50 does the source give for `O=C(NC12CC(C(=O)NCc3ccc(C(F)(F)F)cn3)(C1)C2)[C@H]1C[C@@H](O)c2cc(Cl)ccc2O1` (racemic) [Compound 123, rac-(2R,4R)-6-chloro-4-hydroxy-N-[3-(([5-(trifluoromethyl)pyridin-2-yl]methyl)carbamoyl)bicyclo[1.1.1]pentan-1-yl]-3,4-dihydro-2H-1-benzopyran-2-carboxamide] here?
A: 50 to 250 nM

Q: How did the EC50 turn out when `O=C(N[C@H]1CC[C@H](C(=O)NCc2nc3ccc(Cl)cc3[nH]2)CC1)[C@H]1C[C@@H](O)c2cc(Cl)ccc2O1` (racemic) [Compound 126, rac-(2R,4R)-6-chloro-N-[(1r,4R)-4-{[(6-chloro-1H-benzimidazol-2-yl)methyl]carbamoyl}cyclohexyl]-4-hydroxy-3,4-dihydro-2H-1-benzopyran-2-carboxamide] was run?
A: 10 to 50 nM

Q: With `O=C(NCc1cn2ccc(Cl)cc2n1)[C@@H]1CC[C@@H](NC(=O)[C@@H]2C[C@H](O)c3cc(Cl)ccc3O2)CO1` (racemic) [Compound 131, (2S,4S)-6-chloro-N-[(3R,6S)-6-{[(7-chloroimidazo[1,2-a]pyridin-2-yl)methyl]carbamoyl}oxan-3-yl]-4-hydroxy-3,4-dihydro-2H-1-benzopyran-2-carboxamide and (2R,4R)-6-chloro-N-[(3R,6S)-6-{[(7-chloroimidazo[1,2-a]pyridin-2-yl)methyl]carbamoyl}oxan-3-yl]-4-hydroxy-3,4-dihydro-2H-1-benzopyran-2-carboxamide] as the molecule, how does the EC50 read?
A: 50 to 250 nM

Q: `O=C(N[C@H]1CC[C@H](N2CCN(c3cnc(C(F)F)cn3)C2=O)CC1)[C@H]1C[C@@H](O)c2cc(Cl)ccc2O1` (racemic) [Compound 136, rac-(2R,4R)-6-chloro-N-[(1r,4R)-4-{3-[5-(difluoromethyl)pyrazin-2-yl]-2-oxoimidazolidin-1-yl}cyclohexyl]-4-hydroxy-3,4-dihydro-2H-1-benzopyran-2-carboxamide] was tested. Which EC50 did it give?
A: 50 to 250 nM

Q: Which EC50 does the source give for `O=C(COc1ccc(Cl)c(F)c1)NC1CC2(C1)CN(C(=O)[C@@H]1C[C@H](O)c3cc(Cl)ccc3O1)C2` (racemic) [Compound 145, 2-(4-chloro-3-fluorophenoxy)-N-{2-[rac-(2R,4R)-6-chloro-4-hydroxy-3,4-dihydro-2H-1-benzopyran-2-carbonyl]-2-azaspiro[3.3]heptan-6-yl}acetamide] here?
A: 50 to 250 nM

Q: `O=C(NC12CCC(NC(=O)[C@H]3C[C@@H](OC(F)(F)F)C3)(CC1)[C@@H](O)C2)[C@@H]1C[C@H](O)c2cc(Cl)ccc2O1` (racemic) [Compound 147, (2S,4S)-6-chloro-4-hydroxy-N-[(3S)-3-hydroxy-4-{[(1s,3R)-3-(trifluoromethoxy)cyclobutane-1-carbonyl]amino}bicyclo[2.2.2]octan-1-yl]-3,4-dihydro-2H-1-benzopyran-2-carboxamide and (2R,4R)-6-chloro-4-hydroxy-N-[(3S)-3-hydroxy-4-{[(1s,3R)-3-(trifluoromethoxy)cyclobutane-1-carbonyl]amino}bicyclo[2.2.2]octan-1-yl]-3,4-dihydro-2H-1-benzopyran-2-carboxamide] was tested. Which EC50 did it give?
A: 250 to 500 nM

Q: How did the EC50 turn out when `O=C(NC12CC(n3cnc(-c4ccc(F)c(F)c4)c3)(C1)C2)[C@H]1C[C@@H](O)c2cc(Cl)ccc2O1` (racemic) [Compound 149, rac-(2R,4R)-6-chloro-N-{3-[4-(3,4-difluorophenyl)-1H-imidazo-1-yl]bicyclo[1.1.1]pentan-1-yl}-4-hydroxy-3,4-dihydro-2H-1-benzopyran-2-carboxamide] was run?
A: < 10 nM

Q: How did the EC50 turn out when `O=C(NC12CC(c3nnc([C@H]4C[C@@H](OC(F)(F)F)C4)o3)(C1)C2)[C@H]1C[C@@H](O)c2cc(Cl)ccc2O1` (racemic) [Compound 159, rac-(2R,4R)-6-chloro-4-hydroxy-N-(3-{5-[(1s,3S)-3-(trifluoromethoxy)cyclobutyl]-1,3,4-oxadiazol-2-yl}bicyclo[1.1.1]pentan-1-yl)-3,4-dihydro-2H-1-benzopyran-2-carboxamide] was run?
A: 10 to 50 nM

Q: With `O=C(NC12CCC(c3nnc([C@H]4C[C@@H](OC(F)(F)F)C4)o3)(C1)C2)[C@H]1C[C@@H](O)c2cc(Cl)ccc2O1` (racemic) [Compound 160, rac-(2R,4R)-6-chloro-4-hydroxy-N-(4-{5-[(1s,3S)-3-(trifluoromethoxy)cyclobutyl]-1,3,4-oxadiazol-2-yl}bicyclo[2.1.1]hexan-1-yl)-3,4-dihydro-2H-1-benzopyran-2-carboxamide] as the molecule, how does the EC50 read?
A: 50 to 250 nM

Q: With `O=C(N[C@@H]1CC[C@@H](c2nnc([C@H]3C[C@@H](OC(F)(F)F)C3)o2)OC1)C1CC(O)c2cc(Cl)ccc2O1` (mixture of isomers) [Compound 161, (2RS,4RS)-6-chloro-4-hydroxy-N-[(3R,6)-6-{5-[cis-3-(trifluoromethoxy)cyclobutyl]-1,3,4-oxadiazol-2-yl}oxan-3-yl]-3,4-dihydro-2H-1-benzopyran-2-carboxamide] as the molecule, how does the EC50 read?
A: < 10 nM

Q: With `O=C(COc1ccc(Cl)c(F)c1)NC12CC(c3nnc([C@H]4C[C@@H](O)c5cc(Cl)ccc5O4)o3)(C1)C2` (racemic) [Compound 166, 2-(4-chloro-3-fluorophenoxy)-N-(3-{5-[rac-(2R,4R)-6-chloro-4-hydroxy-3,4-dihydro-2H-1-benzopyran-2-yl]-1,3,4-oxadiazol-2-yl}bicyclo[1.1.1]pentan-1-yl)acetamide] as the molecule, how does the EC50 read?
A: < 10 nM

Source: US20200347043A1, “MODULATORS OF THE INTEGRATED STRESS PATHWAY” (Calico Life Sciences LLC, priority 2019, published 2020)
